# Measurements reported in ChEMBL document CHEMBL1146975, “Identification of cytotoxic, T-cell-selective 1,4-benzodiazepine-2,5-diones” (Bioorg Med Chem Lett, 2006).
# Tested on: Ramos
# Assay: Cytotoxicity against human Ramos B cells
# Assay type: functional, cell-based
row,SMILES,EC50 [µM]
1,CN1C(=O)C(CCc2ccccc2)NC(=O)c2cc(Cl)ccc21 (stereo not drawn),> 100
2,CN1C(=O)C(Cc2ccc(-c3ccc(C(=O)O)cc3)cc2)NC(=O)c2cc(Cl)ccc21 (stereo not drawn),31.8
3,CN1C(=O)C(Cc2ccc(-c3ccccc3)cc2)NC(=O)c2cc(Cl)ccc21 (stereo not drawn),6.2
4,CN1C(=O)C(Cc2ccc(-c3ccncc3)cc2)NC(=O)c2cc(Cl)ccc21 (stereo not drawn),3
5,CN1C(=O)C(Cc2ccc(-c3ccc(Br)cc3)cc2)NC(=O)c2cc(Cl)ccc21 (stereo not drawn),> 20
6,CN1C(=O)C(Cc2ccc(-c3ccoc3)cc2)NC(=O)c2cc(Cl)ccc21 (stereo not drawn),2
7,Cc1ccccc1-c1ccc(CC2NC(=O)c3cc(Cl)ccc3N(C)C2=O)cc1 (stereo not drawn),6.7
8,CN1C(=O)C(Cc2ccc3ccccc3c2)NC(=O)c2cc(Cl)ccc21 (stereo not drawn),10.7
9,CN1C(=O)C(Cc2ccc(-c3ccccc3[N+](=O)[O-])cc2)NC(=O)c2cc(Cl)ccc21 (stereo not drawn),> 20
10,CN1C(=O)C(Cc2ccc(-c3ccccc3Cl)cc2)NC(=O)c2cc(Cl)ccc21 (stereo not drawn),10.3
11,CN1C(=O)C(Cc2c[nH]c3ccccc23)NC(=O)c2cc(Cl)ccc21 (stereo not drawn),9.2
12,CN1C(=O)C(Cc2ccc(-c3ccc(O)cc3)cc2)NC(=O)c2cc(Cl)ccc21 (stereo not drawn),6
13,CN1C(=O)C(Cc2cccc(-c3ccccc3)c2)NC(=O)c2cc(Cl)ccc21 (stereo not drawn),19.1
14,CN1C(=O)C(Cc2ccc(-c3ccc(C(F)(F)F)cc3)cc2)NC(=O)c2cc(Cl)ccc21 (stereo not drawn),4.8
15,CN1C(=O)C(Cc2ccc(-c3cccc(C(F)(F)F)c3)cc2)NC(=O)c2cc(Cl)ccc21 (stereo not drawn),4
16,CN1C(=O)C(Cc2ccccc2Cc2ccccc2)NC(=O)c2cc(Cl)ccc21 (stereo not drawn),18.6
17,CN1C(=O)C(Cc2ccc(-c3ccc([N+](=O)[O-])cc3)cc2)NC(=O)c2cc(Cl)ccc21 (stereo not drawn),10
18,CN1C(=O)C(Cc2cccc3ccccc23)NC(=O)c2cc(Cl)ccc21 (stereo not drawn),12.6
19,CN1C(=O)C(Cc2ccc(/C=C/c3ccccc3)cc2)NC(=O)c2cc(Cl)ccc21 (stereo not drawn),50.3
20,Cc1ccc(-c2ccc(CC3NC(=O)c4cc(Cl)ccc4N(C)C3=O)cc2)cc1 (stereo not drawn),6.9
21,CN1C(=O)C(Cc2ccc(C(C)(C)C)cc2)NC(=O)c2cc(Cl)ccc21 (stereo not drawn),16.2
22,CN1C(=O)C(Cc2ccc(-c3cccc(Br)c3)cc2)NC(=O)c2cc(Cl)ccc21 (stereo not drawn),9.2
23,CN1C(=O)C(Cc2ccc(-c3cccc(C(=O)O)c3)cc2)NC(=O)c2cc(Cl)ccc21 (stereo not drawn),> 20
24,CN1C(=O)C(Cc2ccc(-c3cccc(Cl)c3)cc2)NC(=O)c2cc(Cl)ccc21 (stereo not drawn),1.5
25,CN1C(=O)C(Cc2ccccc2)NC(=O)c2cc(Cl)ccc21 (stereo not drawn),> 100
26,CN1C(=O)C(Cc2ccc(-c3ccc(Cl)cc3)cc2)NC(=O)c2cc(Cl)ccc21 (stereo not drawn),6.5
27,CN1C(=O)C(Cc2ccc(-c3cccc([N+](=O)[O-])c3)cc2)NC(=O)c2cc(Cl)ccc21 (stereo not drawn),4.2
28,CN1C(=O)C(Cc2ccc(-c3cccc(O)c3)cc2)NC(=O)c2cc(Cl)ccc21 (stereo not drawn),4
29,CN1C(=O)C(Cc2ccc(-c3cccnc3)cc2)NC(=O)c2cc(Cl)ccc21 (stereo not drawn),6
30,Cc1cccc(-c2ccc(CC3NC(=O)c4cc(Cl)ccc4N(C)C3=O)cc2)c1 (stereo not drawn),2.8

# Tested on: Jurkat
# Assay: Cytotoxicity against human Jurkat T cells
# Assay type: functional, cell-based
row,SMILES,EC50 [µM]
1,CN1C(=O)C(CCc2ccccc2)NC(=O)c2cc(Cl)ccc21 (stereo not drawn),> 80
2,CN1C(=O)C(Cc2ccc(-c3ccc(C(=O)O)cc3)cc2)NC(=O)c2cc(Cl)ccc21 (stereo not drawn),15.1
3,CN1C(=O)C(Cc2ccc(-c3ccccc3)cc2)NC(=O)c2cc(Cl)ccc21 (stereo not drawn),2.3
4,CN1C(=O)C(Cc2ccc(-c3ccncc3)cc2)NC(=O)c2cc(Cl)ccc21 (stereo not drawn),0.5
5,CN1C(=O)C(Cc2ccc(-c3ccc(Br)cc3)cc2)NC(=O)c2cc(Cl)ccc21 (stereo not drawn),9.8
6,CN1C(=O)C(Cc2ccc(-c3ccoc3)cc2)NC(=O)c2cc(Cl)ccc21 (stereo not drawn),0.3
7,Cc1ccccc1-c1ccc(CC2NC(=O)c3cc(Cl)ccc3N(C)C2=O)cc1 (stereo not drawn),5.4
8,CN1C(=O)C(Cc2ccc3ccccc3c2)NC(=O)c2cc(Cl)ccc21 (stereo not drawn),3
9,CN1C(=O)C(Cc2ccc(-c3ccccc3[N+](=O)[O-])cc2)NC(=O)c2cc(Cl)ccc21 (stereo not drawn),> 20
10,CN1C(=O)C(Cc2ccc(-c3ccccc3Cl)cc2)NC(=O)c2cc(Cl)ccc21 (stereo not drawn),8.3
11,CN1C(=O)C(Cc2c[nH]c3ccccc23)NC(=O)c2cc(Cl)ccc21 (stereo not drawn),26.2
12,CN1C(=O)C(Cc2ccc(-c3ccc(O)cc3)cc2)NC(=O)c2cc(Cl)ccc21 (stereo not drawn),1.5
13,CN1C(=O)C(Cc2cccc(-c3ccccc3)c2)NC(=O)c2cc(Cl)ccc21 (stereo not drawn),5.4
14,CN1C(=O)C(Cc2ccc(-c3ccc(C(F)(F)F)cc3)cc2)NC(=O)c2cc(Cl)ccc21 (stereo not drawn),5.2
15,CN1C(=O)C(Cc2ccc(-c3cccc(C(F)(F)F)c3)cc2)NC(=O)c2cc(Cl)ccc21 (stereo not drawn),4.5
16,CN1C(=O)C(Cc2ccccc2Cc2ccccc2)NC(=O)c2cc(Cl)ccc21 (stereo not drawn),17.6
17,CN1C(=O)C(Cc2ccc(-c3ccc([N+](=O)[O-])cc3)cc2)NC(=O)c2cc(Cl)ccc21 (stereo not drawn),3.8
18,CN1C(=O)C(Cc2cccc3ccccc23)NC(=O)c2cc(Cl)ccc21 (stereo not drawn),20.5
19,CN1C(=O)C(Cc2ccc(/C=C/c3ccccc3)cc2)NC(=O)c2cc(Cl)ccc21 (stereo not drawn),7.5
20,Cc1ccc(-c2ccc(CC3NC(=O)c4cc(Cl)ccc4N(C)C3=O)cc2)cc1 (stereo not drawn),3.6
21,CN1C(=O)C(Cc2ccc(C(C)(C)C)cc2)NC(=O)c2cc(Cl)ccc21 (stereo not drawn),8.2
22,CN1C(=O)C(Cc2ccc(-c3cccc(Br)c3)cc2)NC(=O)c2cc(Cl)ccc21 (stereo not drawn),4.8
23,CN1C(=O)C(Cc2ccc(-c3cccc(C(=O)O)c3)cc2)NC(=O)c2cc(Cl)ccc21 (stereo not drawn),> 20
24,CN1C(=O)C(Cc2ccc(-c3cccc(Cl)c3)cc2)NC(=O)c2cc(Cl)ccc21 (stereo not drawn),2
25,CN1C(=O)C(Cc2ccccc2)NC(=O)c2cc(Cl)ccc21 (stereo not drawn),> 80
26,CN1C(=O)C(Cc2ccc(-c3ccc(Cl)cc3)cc2)NC(=O)c2cc(Cl)ccc21 (stereo not drawn),6.5
27,CN1C(=O)C(Cc2ccc(-c3cccc([N+](=O)[O-])c3)cc2)NC(=O)c2cc(Cl)ccc21 (stereo not drawn),1.5
28,CN1C(=O)C(Cc2ccc(-c3cccc(O)c3)cc2)NC(=O)c2cc(Cl)ccc21 (stereo not drawn),1.5
29,CN1C(=O)C(Cc2ccc(-c3cccnc3)cc2)NC(=O)c2cc(Cl)ccc21 (stereo not drawn),0.6
30,Cc1cccc(-c2ccc(CC3NC(=O)c4cc(Cl)ccc4N(C)C3=O)cc2)c1 (stereo not drawn),3.1

# Tested on: not listed separately
# Assay: Selectivity for Jurkat T cells over Ramos B cells
# Assay type: functional
row,SMILES,Ratio EC50
1,CN1C(=O)C(Cc2ccc(-c3ccc(C(=O)O)cc3)cc2)NC(=O)c2cc(Cl)ccc21 (stereo not drawn),2.1
2,CN1C(=O)C(Cc2ccc(-c3ccncc3)cc2)NC(=O)c2cc(Cl)ccc21 (stereo not drawn),6
3,CN1C(=O)C(Cc2ccc(-c3ccc(Br)cc3)cc2)NC(=O)c2cc(Cl)ccc21 (stereo not drawn),>2
4,CN1C(=O)C(Cc2ccc(-c3ccoc3)cc2)NC(=O)c2cc(Cl)ccc21 (stereo not drawn),6.5
5,Cc1ccccc1-c1ccc(CC2NC(=O)c3cc(Cl)ccc3N(C)C2=O)cc1 (stereo not drawn),1.2
6,CN1C(=O)C(Cc2ccc(-c3ccccc3Cl)cc2)NC(=O)c2cc(Cl)ccc21 (stereo not drawn),1.2
7,CN1C(=O)C(Cc2ccc(-c3ccc(O)cc3)cc2)NC(=O)c2cc(Cl)ccc21 (stereo not drawn),4
8,CN1C(=O)C(Cc2ccc(-c3ccc(C(F)(F)F)cc3)cc2)NC(=O)c2cc(Cl)ccc21 (stereo not drawn),0.9
9,CN1C(=O)C(Cc2ccc(-c3cccc(C(F)(F)F)c3)cc2)NC(=O)c2cc(Cl)ccc21 (stereo not drawn),0.9
10,CN1C(=O)C(Cc2ccc(-c3ccc([N+](=O)[O-])cc3)cc2)NC(=O)c2cc(Cl)ccc21 (stereo not drawn),2.6
11,Cc1ccc(-c2ccc(CC3NC(=O)c4cc(Cl)ccc4N(C)C3=O)cc2)cc1 (stereo not drawn),1.9
12,CN1C(=O)C(Cc2ccc(-c3cccc(Br)c3)cc2)NC(=O)c2cc(Cl)ccc21 (stereo not drawn),1.9
13,CN1C(=O)C(Cc2ccc(-c3cccc(Cl)c3)cc2)NC(=O)c2cc(Cl)ccc21 (stereo not drawn),0.8
14,CN1C(=O)C(Cc2ccc(-c3ccc(Cl)cc3)cc2)NC(=O)c2cc(Cl)ccc21 (stereo not drawn),1
15,CN1C(=O)C(Cc2ccc(-c3cccc([N+](=O)[O-])c3)cc2)NC(=O)c2cc(Cl)ccc21 (stereo not drawn),2.8
16,CN1C(=O)C(Cc2ccc(-c3cccc(O)c3)cc2)NC(=O)c2cc(Cl)ccc21 (stereo not drawn),2.7
17,CN1C(=O)C(Cc2ccc(-c3cccnc3)cc2)NC(=O)c2cc(Cl)ccc21 (stereo not drawn),10
18,Cc1cccc(-c2ccc(CC3NC(=O)c4cc(Cl)ccc4N(C)C3=O)cc2)c1 (stereo not drawn),0.9
